Experimental data reported in patent US7872036B2, “3-triazolylphenyl sulfide derivative and insecticide, miticide and nematicide containing it as an active ingredient” (Kumiai Chemical Industry Co., Ltd., priority 2004, dated 2011).

How the values were obtained:
brown planthoppers = assay: Insecticidal test on brown planthoppers; format: in vivo, Nilaparvata lugens; conditions: active ingredient 500 ppm, germinating rice immersed, 4th-instar larvae, 25° C., 6 days
Protocol: Wettable powders were prepared in accordance with Formulation Example 2 and diluted with water to an active ingredient concentration of 500 ppm. Germinating rice was immersed in the resulting solutions and put in a plastic cup with a capacity of 60 ml. Ten 4th-instar larvae of brown planthoppers were released to the cup, and the cup was covered and placed in a thermostatic chamber at 25° C. for 6 days, and the survivors were counted for calculation of the insecticidal degree by using Equation 1. The test was carried out by one series system.

[1] = tested on: southern root-knot nematodes; assay: Nemastatic test on southern root-knot nematodes; format: in vivo, Meloidogyne sp.; conditions: diluted solution 20 ppm mixed 1:1 with suspension of second stage larvae, 25° C., 5 days
Protocol: Compounds of the present invention (5 parts) and Tween 20 (tradename for polyoxyethylene sorbitan monolaurate) (1 part) as a spreader were dissolved n N,N-dimethylformamide (94 parts) to prepare 5% emulsifiable concentrates of the compounds of the present invention. Distilled water was added to the emulsifiable concentrates to prepare diluted solutions having a concentration of the compounds of the present invention of 20 ppm. 0.5 ml of the diluted solutions and 0.5 ml of water suspensions containing 100 second stage larvae of southern root-knot nematodes were mixed, and the mixture were placed in a thermostatic chamber at 25° C. for 5 days, and the survivors were counted for calculation of the nemastatic degree by using Equation 3. The test was carried out by two series system.

two-spotted spider mites [2] = assay: Miticidal test on two-spotted spider mites (by dipping); format: in vivo, Tetranychus urticae; set-up: scale not given here; conditions: dipping of soybean seedlings, active ingredient 500 ppm, 25° C., 13 days
Protocol: (§1) Wettable powders were prepared in accordance with Formulation Example 2 and diluted with water to an active ingredient concentration of 500 ppm. Soybean seedlings which had been inoculated with imago two-spotted spider mites were dipped in the resulting solutions and dried in air. The treated seedlings were placed in a thermostatic chamber at 25° C. for 13 days, and the mite survivors were counted for calculation of the miticidal value by using Equation 2. The test was carried out by one series system.

two-spotted spider mites [3] = assay: Miticidal test on two-spotted spider mites (by soil drenching); format: in vivo, Tetranychus urticae; set-up: scale not given here; conditions: active ingredient 100 ppm, 5 ml per 100 g soil, 25° C., 13 days
Protocol: as §1, with “100” for “500”, “100 g of the soil in cups with soybean” for “Soybean”, “drenched with 5 ml of” for “dipped in”, “solutions.” for “solutions and dried in air.”, “[…]” for “thermostatic”, “2.” for “2. The test was carried out by one series system.”

| Structure (SMILES) | Insecticidal degree (%) (brown planthoppers) | Nemastatic degree (%) [1] | Miticidal value (two-spotted spider mites [2]) | Miticidal value (two-spotted spider mites [3]) |
| --- | --- | --- | --- | --- |
| CNc1nc(C(F)(F)F)nn1-c1ccc(C)c([S+]([O-])CC(F)(F)F)c1 (stereo not drawn) [Compound 38] | 100% | 100% | 100 | 100 |
| Cc1cc(F)c(-n2nc(SCC(F)(F)F)nc2N)cc1[S+]([O-])CC(F)(F)F (stereo not drawn) [Compound 131] | 90% | 93% | 100 | 100 |
| Cc1cc(F)c(-n2nc(C#N)nc2N)cc1[S+]([O-])CC(F)(F)F (stereo not drawn) [Compound 36] | – | 100% | 100 | 100 |
| CNc1nc(SCC(F)(F)F)nn1-c1cc([S+]([O-])CC(F)(F)F)c(C)cc1F (stereo not drawn) [Compound 161] | 100% | 98% | 100 | 100 |
| CNc1nc(C(C)(C)C)nn1-c1cc([S+]([O-])CC(F)(F)F)c(C)cc1F (stereo not drawn) [Compound 115] | 100% | 92% | 100 | 100 |
| Cc1cc(F)c(-n2nc([S+]([O-])C(F)F)nc2N)cc1[S+]([O-])CC(F)(F)F (stereo not drawn) [Compound 30] | – | 95% | 100 | 100 |
| Cc1cc(F)c(-n2nc(C(F)(F)F)nc2NN)cc1SCC(F)(F)F [Compound 162] | 100% | 100% | 100 | 95 |
| CNc1nc(C(C)(C)C)nn1-c1cc(SCC(F)(F)F)c(C)cc1F [Compound 114] | 100% | 100% | 100 | 100 |
| CNc1nc(C(F)(F)F)nn1-c1ccc(C)c(SCC(F)(F)F)c1 [Compound 37] | 100% | – | 100 | 100 |
| CCc1nc(N)n(-c2cc([S+]([O-])CC(F)(F)F)c(C)cc2F)n1 (stereo not drawn) [Compound 50] | 99% | 98% | 100 | 100 |
| Nc1nc(C(F)(F)F)nn1-c1ccc(C(F)F)c([S+]([O-])CC(F)(F)F)c1 (stereo not drawn) [Compound 123] | – | 98% | 100 | 100 |
| Cc1cc(F)c(-n2nc(SC(F)(F)F)nc2NC(=O)C(F)(F)F)cc1SCC(F)(F)F [Compound 99] | 100% | – | 100 | 100 |
| CCC(=O)Nc1nc(C(F)(F)F)nn1-c1cc([S+]([O-])CC(F)(F)F)c(C)cc1F (racemic) [Compound 187] | 100% | – | 100 | 99 |
| Cc1ccc(-n2nc(C(F)(F)F)nc2N)cc1[S+]([O-])CC(F)(F)F (stereo not drawn) [Compound 125] | 100% | 91% | 100 | 99 |
| Nc1nc(C(F)(F)F)nn1-c1ccc(Cl)c([S+]([O-])CC(F)(F)F)c1 (stereo not drawn) [Compound 127] | 100% | 94% | 100 | 100 |
| Cc1cc(F)c(-n2nc(C(F)(F)F)nc2NC(C)C)cc1[S+]([O-])CC(F)(F)F (stereo not drawn) [Compound 167] | 100% | – | 100 | 100 |
| Cc1cc(F)c(-n2nc(C(F)(F)F)nc2N)cc1[S+]([O-])CC(F)(F)F (stereo not drawn) [Compound 2, [5-(5-amino-3-trifluoromethyl-1,2,4-triazolyl)-4-fluoro-2-methylphenyl]2,2,2-trifluoroethyl sulfoxide] | 100% | 100% | 100 | 100 |
| Cc1cc(F)c(-n2nc(SC(F)F)nc2N)cc1[S+]([O-])CC(F)(F)F (stereo not drawn) [Compound 28] | 100% | – | 100 | 100 |

| Structure (SMILES) | Insecticidal degree (%) (brown planthoppers) | Nemastatic degree (%) [1] | Miticidal value (two-spotted spider mites [2]) | Miticidal value (two-spotted spider mites [3]) |
| --- | --- | --- | --- | --- |
| Cc1cc(F)c(-n2nc(C(F)(F)F)nc2N(C)N)cc1[S+]([O-])CC(F)(F)F (stereo not drawn) [Compound 171] | 100% | 100% | 100 | 100 |
| Cc1cc(F)c(-n2nc(C#N)nc2N)cc1SCC(F)(F)F [Compound 35] | – | 100% | 100 | 93 |
| C#CCNc1nc(SC(F)(F)C(F)(F)F)nn1-c1cc([S+]([O-])CC(F)(F)F)c(C)cc1F (racemic) [Compound 194] | 100% | – | 100 | 100 |
| Cc1cc(F)c(-n2nc(C(F)(F)F)nc2NC(=O)C(F)(F)F)cc1SCC(F)(F)F [Compound 5, [5-(5-trifluoroacetylamino-3-trifluoromethyl-1,2,4-triazolyl)-4-fluoro-2-methylphenyl]2,2,2-trifluoroethyl sulfide] | 100% | – | 100 | 100 |
| CCC(C)(C)c1nc(N)n(-c2cc([S+]([O-])CC(F)(F)F)c(C)cc2F)n1 (stereo not drawn) [Compound 119] | 90% | – | 100 | 100 |
| Cc1cc(F)c(-n2nc(C(F)(F)F)nc2N(C)C)cc1SCC(F)(F)F [Compound 43] | 100% | 93% | 100 | 100 |
| Cc1cc(F)c(-n2nc(C(F)(F)F)nc2N(C)C(=O)C(F)(F)F)cc1[S+]([O-])CC(F)(F)F (racemic) [Compound 212] | 100% | 100% | 100 | 100 |
| C#CCNc1nc(C(F)(F)F)nn1-c1cc([S+]([O-])CC(F)(F)F)c(C)cc1F (stereo not drawn) [Compound 66] | 100% | 94% | 100 | 100 |
| Cc1cc(F)c(-n2nc(C(F)(F)F)nc2NC(=O)CCl)cc1[S+]([O-])CC(F)(F)F (racemic) [Compound 190] | 100% | – | 100 | 100 |
| Cc1cc(F)c(-n2nc(C(F)(F)F)nc2N)cc1SCC(F)(F)F [Compound 1, [5-(5-amino-3-trifluoromethyl-1,2,4-triazolyl)-4-fluoro-2-methylphenyl]2,2,2-trifluoroethyl sulfide] | 90% | 100% | 100 | 99 |
| CNC(=O)Nc1nc(C(F)(F)F)nn1-c1cc([S+]([O-])CC(F)(F)F)c(C)cc1F (stereo not drawn) [Compound 169] | 100% | – | 100 | 100 |
| COC(=O)Nc1nc(C(F)(F)F)nn1-c1cc([S+]([O-])CC(F)(F)F)c(C)cc1F (stereo not drawn) [Compound 80] | 100% | – | 100 | 100 |
| Cc1cc(F)c(-n2nc(C(F)(F)F)nc2N)cc1[S+]([O-])CC1CC1 (stereo not drawn) [Compound 4] | 90% | – | 100 | 100 |
| CNc1nc(SC(F)(F)C(F)(F)F)nn1-c1cc([S+]([O-])CC(F)(F)F)c(C)cc1F (stereo not drawn) [Compound 102] | 100% | 98% | 100 | 100 |
| Cc1cc(F)c(-n2nc([S+]([O-])CC(F)(F)F)nc2N)cc1[S+]([O-])CC(F)(F)F (stereo not drawn) [Compound 133] | 100% | 98% | 100 | 100 |
| C#CCNc1nc(SCC(F)(F)F)nn1-c1cc([S+]([O-])CC(F)(F)F)c(C)cc1F (racemic) [Compound 185] | 100% | – | 100 | 100 |
| Cc1cc(F)c(-n2nc(C(C)(C)C)nc2N)cc1SCC(F)(F)F [Compound 144] | 90% | 97% | 100 | 100 |
